Experimental data reported in patent publication US20200216454A1, “BIFUNCTIONAL MOLECULES FOR HER3 DEGRADATION AND METHODS OF USE” (Dana-Farber Cancer Institute, Inc., priority 2016, published 2020).
pIC50: −log10 of the molar value.

Key:
Her3 [1] = target: T1, Her3 (Homo sapiens, UniProt P21860); assay: Her3 protein degradation by Western blot; assay type: cell-based; set-up: endogenous in cells; host or cells: PC9-GR4; Ovacar 8; key: (+): Her3 protein was degraded; (−): Her3 protein was not degraded; conditions: PC9-GR4 or Ovacar 8 cell lines, 2 μM, 4 hour and 8 hour
Method: Cells are seeded at the desired density the day before treatment starts with bifunctional compounds of the application at various concentration. After 4 to 12 hrs, cells are washed with buffer and lysed. The lysates are centrifuged and the supernatant is collected. Protein concentrations are measured using a protein assay kit, such as the BCA protein assay kit, Pierce, catalog number 23225) and normalized. Samples are run on a SDS-PAGE gel, and transferred to a PVDF membrane. The PVDF membrane is probed with the appropriate antibody.
Her3 protein degradation was assessed by Western blots after treatment of PC9-GR4 cell lines or Ovacar 8 cell lines with 2 μM of representative compounds for 4 hour and 8 hour.
Cells were seeded at a density of […] per 6 cm plate the day before treatment started with representative compounds of the application at the indicated concentration. After 4 to 12 hours, cells were washed with phosphate-buffered saline. Lysis buffer included 50 mM Tris-HCl, 150 mM NaCl, 1% NP-40, and 5 mM EDTA, pH 7.4+/−0.2, Roche PhosSTOP phosphatase inhibitor cocktail tablets and Roche Complete Protease inhibitor cocktail tablets. Cell lysis was accomplished by the addition of lysis buffer for 5-10 minutes on ice. Lysates were centrifuged in a microcentrifuge at 14,000 r.p.m. for 15 minutes at 4° C. and the supernatant was collected. Protein concentrations were measured using BCA protein assay kit (Pierce, catalog number 23225) and normalized. Samples were run on a 4%-12% SDS-PAGE gel at 120 V. After transfer, the PVDF membrane was probed with anti-Her3 antibody, Santa Cruz, catalog number sc-285 at 1:1000 dilution.
Target sequence in this assay (P21860 20-1342): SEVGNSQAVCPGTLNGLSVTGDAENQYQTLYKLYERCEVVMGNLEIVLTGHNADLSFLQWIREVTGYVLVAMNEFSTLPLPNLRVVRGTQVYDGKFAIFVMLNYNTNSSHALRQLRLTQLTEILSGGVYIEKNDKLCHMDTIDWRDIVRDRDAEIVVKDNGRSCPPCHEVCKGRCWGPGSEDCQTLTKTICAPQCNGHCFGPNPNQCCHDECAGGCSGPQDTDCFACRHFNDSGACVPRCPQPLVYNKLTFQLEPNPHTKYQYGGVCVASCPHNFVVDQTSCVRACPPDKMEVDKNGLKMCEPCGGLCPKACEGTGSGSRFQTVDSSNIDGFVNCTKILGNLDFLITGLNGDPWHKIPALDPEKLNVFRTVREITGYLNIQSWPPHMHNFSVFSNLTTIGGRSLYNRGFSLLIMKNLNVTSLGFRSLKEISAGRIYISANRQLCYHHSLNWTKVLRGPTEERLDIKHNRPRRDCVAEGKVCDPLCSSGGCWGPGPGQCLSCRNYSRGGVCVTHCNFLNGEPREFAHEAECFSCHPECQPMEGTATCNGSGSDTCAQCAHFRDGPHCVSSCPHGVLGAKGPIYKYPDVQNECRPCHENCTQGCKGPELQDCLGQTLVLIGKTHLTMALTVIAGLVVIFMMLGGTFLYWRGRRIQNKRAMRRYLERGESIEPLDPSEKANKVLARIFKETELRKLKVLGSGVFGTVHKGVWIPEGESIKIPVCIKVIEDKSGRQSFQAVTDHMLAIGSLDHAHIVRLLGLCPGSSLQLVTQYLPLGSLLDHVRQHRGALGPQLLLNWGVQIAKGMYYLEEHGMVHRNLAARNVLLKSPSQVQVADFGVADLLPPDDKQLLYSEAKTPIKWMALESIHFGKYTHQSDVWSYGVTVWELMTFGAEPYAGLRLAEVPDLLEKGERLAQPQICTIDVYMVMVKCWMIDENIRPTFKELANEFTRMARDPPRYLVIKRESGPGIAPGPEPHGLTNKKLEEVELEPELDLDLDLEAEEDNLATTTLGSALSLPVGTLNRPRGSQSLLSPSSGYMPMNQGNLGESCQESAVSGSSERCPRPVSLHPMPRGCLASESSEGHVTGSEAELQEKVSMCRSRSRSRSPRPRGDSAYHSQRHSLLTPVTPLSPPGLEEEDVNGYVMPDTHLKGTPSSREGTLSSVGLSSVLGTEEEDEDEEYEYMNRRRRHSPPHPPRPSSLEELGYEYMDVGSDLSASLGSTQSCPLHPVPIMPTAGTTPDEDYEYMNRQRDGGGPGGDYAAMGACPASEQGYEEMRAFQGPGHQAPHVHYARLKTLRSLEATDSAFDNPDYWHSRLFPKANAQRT

Ovacar 5 = assay: Anti-proliferation MTS assay, Ovacar 5; assay type: cell-based; conditions: 72 h, Ovacar 5 cells, 3 days, read-out: Cell lines (EC50, μM) Ovacar 5
Method: (§1) Cells are seeded and incubated for 3 d after bifunctional compounds of the application are added. Cell viability is measured via MTS Assay. This assay uses a colorimetric method to determine the number of viable cells based on the bioreduction of MTS by cells to a formazan product that is soluble in cell culture medium and can be detected spectrophotometrically. In a typical experiment, the supernatant is removed and replaced by 100 μl of RPMI media supplemented with MTS reagent and PMS. The plates are measured with Perkin Elmer EnVision after reaching an optical density (OD) of 1.0-2.0 at a wavelength of 490 nm. The cell numbers are normalized compared to DMSO control, and the EC50 values are calculated using GraphPad Prism.
(§2) Five cell lines, PC9-GR4, 826-GR6, Ovacar 8, A549, and Ovacar 5 were grown and treated with representative compounds Viability of the cells after the treatment was assessed by MTS assay.
(§3) The anti-proliferation assay was carried out using 96-well clear bottom plates. […] Cell viability was measured via MTS Assay. This assay uses a colorimetric method to determine the number of viable cells based on the bioreduction of MTS by cells to a formazan product that is soluble in cell culture medium and can be detected spectrophotometrically. […] The plates were measured with Perkin Elmer EnVision after reaching an optical density (OD) of 1.0-2.0 at a wavelength of 490 nm. […]

Ovacar 8 = assay: Anti-proliferation MTS assay, Ovacar 8; assay type: cell-based; conditions: 72 h, Ovacar 8 cells, 3 days, read-out: Cell lines (EC50, μM) Ovacar 8
Method: as §1, §2, §3

PC9-GR4 = assay: Anti-proliferation MTS assay, PC9-GR4; assay type: cell-based; conditions: 72 h, PC9-GR4 cells, 3 days, read-out: Cell lines (EC50, μM) PC9-GR4
Method: as §1, §2, §3

A549 = assay: Anti-proliferation MTS assay, A549; assay type: cell-based; conditions: Homo sapiens, 72 h, A549 cells, 3 days, read-out: Cell lines (EC50, μM) A549
Method: as §1, §2, §3

826-GR6 = assay: Anti-proliferation MTS assay, 826-GR6; assay type: cell-based; conditions: 72 h, 826-GR6 cells, 3 days, read-out: Cell lines (EC50, μM) 826-GR6
Method: as §1, §2, §3

Her3 [2] = target: T1, Her3; assay: LanthaScreen Eu kinase binding assay; set-up: purchased Life Technologies; conditions: read-out: Binding Affinities (IC50)
Method: Lantha screening is performed by following the method reported in Nature Chemical Biology, 10, 1006-1012 (2014).
Binding affinities (IC50) of representative compounds were measured by the Life Technologies LanthaScreen Eu kinase binding assay, which was previously described (Xie T. et al., Nat. Chem. Biol. 2014, 10, 1006-1012).
Lantha screening was performed by following the method reported in Nature Chemical Biology, 10, 1006-1012 (2014).
Target sequence in this assay (P21860 20-1342, species assumed): as the sequence (P21860 20-1342) above

Compound	Her3 Degradation (Her3 [1])	pIC50 (Her3 [2])	other results
C=CC(=O)Nc1cc(-c2nn(C3CCN(CCOCCOCCOCCC(=O)N[C@@H](C(=O)N4C[C@@H](O)C[C@@H]4C(=O)NCc4ccc(-c5scnc5C)cc4)C(C)(C)C)CC3)c3ncnc(N)c23)ccc1Oc1ccccc1 [Compound PP1]	−		
C=CC(=O)Nc1cc(-c2nn(C3CCN(CC(=O)N[C@@H](C(=O)N4C[C@@H](O)C[C@@H]4C(=O)NCc4ccc(-c5scnc5C)cc4)C(C)(C)C)CC3)c3ncnc(N)c23)ccc1Oc1ccccc1 [Compound PP2]	+		EC50 (Ovacar 5): 5 to 15 µM; EC50 (Ovacar 8): < 5 µM; EC50 (PC9-GR4): 5 to 15 µM; EC50 (A549): 5 to 15 µM; EC50 (826-GR6): 5 to 15 µM
C=CC(=O)Nc1cc(-c2nn(C3CCN(CC(=O)NCCCCNC(=O)COc4cccc5c4C(=O)N(C4CCC(=O)NC4=O)C5=O)CC3)c3ncnc(N)c23)ccc1Oc1ccccc1 (stereo not drawn) [Compound PP3]	+		
C=CC(=O)Nc1cc(-c2nn(C3CCN(CC(=O)NCCCCCCCCNC(=O)COc4cccc5c4C(=O)N(C4CCC(=O)NC4=O)C5=O)CC3)c3ncnc(N)c23)ccc1Oc1ccccc1 (stereo not drawn) [Compound PP4]	+		EC50 (Ovacar 8): 5 to 15 µM
C=CC(=O)Nc1cc(-c2nn(C3CCN(CC(=O)NCCCOCCOCCOCCCNC(=O)COc4cccc5c4C(=O)N(C4CCC(=O)NC4=O)C5=O)CC3)c3ncnc(N)c23)ccc1Oc1ccccc1 (stereo not drawn) [Compound PP5]	−		
Nc1ncnc2c1c(-c1ccc(Oc3ccccc3)c([N+](=O)[O-])c1)nn2C1CCN(CC(=O)NCCOCCOCCOCCNC(=O)COc2cccc3c2C(=O)N(C2CCC(=O)NC2=O)C3=O)CC1 (stereo not drawn) [Compound PP6]	−	7.00 to 8.00	
Nc1ncnc2c1c(-c1ccc(Oc3ccccc3)c([N+](=O)[O-])c1)nn2C1CCN(CC(=O)NCCCCNC(=O)COc2cccc3c2C(=O)N(C2CCC(=O)NC2=O)C3=O)CC1 (stereo not drawn) [Compound PP7]	−	7.00 to 8.00	
Cc1ncsc1-c1ccc(CNC(=O)[C@@H]2C[C@@H](O)CN2C(=O)[C@@H](NC(=O)CCOCCOCCOCCN2CCC(n3nc(-c4ccc(Oc5ccccc5)c([N+](=O)[O-])c4)c4c(N)ncnc43)CC2)C(C)(C)C)cc1 [Compound PP8]	+	< 7.00	EC50 (PC9-GR4): > 15 µM
